Reference: ChEMBL document CHEMBL1155647, “New eudesmane sesquiterpenes from Plectranthus cylindraceus” (J Nat Prod, 2000)
The source made the active and inactive calls.

Legend:
[1] = test system: Candida albicans; experiment: Antimicrobial activity against Candida albicans ATCC 10231 at 100 ug/mL by agar dilution assay; assay type: functional, organism-based
[2] = test system: Pseudomonas aeruginosa; experiment: Antimicrobial activity against Pseudomonas aeruginosa ATCC 15442 at 100 ug/mL by agar dilution assay; assay type: functional, organism-based
[3] = test system: Staphylococcus aureus; experiment: Antimicrobial activity against Staphylococcus aureus ATCC 29213 at 100 ug/mL by agar dilution assay; assay type: functional, organism-based
[4] = test system: Bacillus subtilis; experiment: Antimicrobial activity against Bacillus subtilis ATCC 6633 at 100 ug/mL by agar dilution assay; assay type: functional, organism-based
[5] = test system: Mycolicibacterium smegmatis; experiment: Antimicrobial activity against Mycobacterium smegmatis ATCC 35797 at 100 ug/mL by agar dilution assay; assay type: functional, organism-based
[6] = test system: Escherichia coli; experiment: Antimicrobial activity against Escherichia coli ATCC 25922 at 100 ug/mL by agar dilution assay; assay type: functional, organism-based
[7] = test system: MCF7; experiment: Anticancer activity against human MCF7 cells; assay type: functional, cell-based
[8] = test system: NCI-H460; experiment: Anticancer activity against human NCI-H460 cells; assay type: functional, cell-based
[9] = test system: SF-268; experiment: Anticancer activity against human SF268 cells; assay type: functional, cell-based

Measured: Activity

CC(=O)OC[C@@]12CC[C@@H](C(C)C)[C@@H](O)[C@@H]1C(C)=CC(=O)C2
not listed: [7] | [8] | [9]
inactive: all other assays above

COc1cc(O)c2c(=O)c(OC)c(-c3ccc(O)c(OC)c3)oc2c1
not listed: [7] | [8] | [9]
inactive: all other assays above

CC(=O)OC[C@@]12CC[C@@H](C(C)C)[C@@H](OC(C)=O)[C@@H]1C(C)=CC(=O)C2
inactive: all assays above

COc1ccc(-c2oc3cc(OC)c(OC)c(O)c3c(=O)c2OC)cc1O
not listed: [7] | [8] | [9]
inactive: all other assays above

COc1cc2oc(-c3ccc(O)c(O)c3)c(OC)c(=O)c2c(O)c1OC
not listed: [7] | [8] | [9]
inactive: all other assays above

CC(=O)O[C@@H]1[C@H](C(C)C)CC[C@@]2(CO)CC(=O)C=C(C)[C@@H]12
inactive: all assays above
